Source: ChEMBL document CHEMBL1201862, “PubChem BioAssay data set” (2004)
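Each compound was tested at five concentrations against cells in 96-well plates for 48 hours. GI50: concentration for 50% inhibition of growth.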 Calls of active or inactive are those of the source. Cut-off read from the data, not from the text of the source: active = GI50 up to about 1.1 µM and inactive = higher.

Tests used:
Assay in all cases: NCI-60 cell line screen, 48 h
[1] = system: A498
[2] = system: M14
[3] = system: MCF7
[4] = system: PC-3
[5] = system: SR
[6] = system: CAKI-1
[7] = system: HCT-15
[8] = system: NCI-H522
[9] = system: SNB-75
[10] = system: SK-MEL-28
[11] = system: OVCAR-4
[12] = system: SW-620
[13] = system: LOX IMVI
[14] = system: HL-60
[15] = system: HT-29
[16] = system: BT-549
[17] = system: TK-10
[18] = system: HCT-116
[19] = system: A549

Row | SMILES | GI50 [1] | GI50 [2] | GI50 [3] | GI50 [4] | GI50 [5] | GI50 [6] | GI50 [7] [µM] | GI50 [8] | GI50 [9] | GI50 [10] | GI50 [11] | GI50 [12] | GI50 [13] | GI50 [14] | GI50 [15] | GI50 [16] | GI50 [17] | GI50 [18] | GI50 [19]
1 | O=c1c(-c2ccc(Cl)cc2)nnc2n(Cc3ccccc3)c3ccccc3n12 | 23 µM (inactive) | 43.4 µM (inactive) | 60.7 µM (inactive) | 30.1 µM (inactive) | > 100 µM (inactive) | 16.4 µM (inactive) | > 100 | 16.8 µM (inactive) | 13 µM (inactive) | 51.6 µM (inactive) | 5.94 µM (inactive) | > 100 µM (inactive) | 82.6 µM (inactive) | 50 µM (inactive) | 52.6 µM (inactive) | 22 µM (inactive) | 20.6 µM (inactive) | 50.5 µM (inactive) | 25.5 µM (inactive)
2 | Oc1cc2c3c(c1)c1cc4c(cc1c[n+]3CC2)OCO4 | 35.4 µM (inactive) | 32.1 µM (inactive) | 7.69 µM (inactive) | 3 µM (inactive) | 0.671 µM (active) | 10.2 µM (inactive) | 13.6 | 0.492 µM (active) | 2.25 µM (inactive) | 7.82 µM (inactive) | 3.64 µM (inactive) | 2.86 µM (inactive) | 1.63 µM (inactive) | 3.97 µM (inactive) | 4.6 µM (inactive) | 1.77 µM (inactive) | 13 µM (inactive) | 1.55 µM (inactive) | 5.71 µM (inactive)
3 | O=C(NCCC1CN(S(=O)(=O)C(F)(F)F)c2ccccc21)OCc1ccccc1 (configuration not stated) | > 100 µM (inactive) | > 100 µM (inactive) | > 100 µM (inactive) | > 100 µM (inactive) | > 100 µM (inactive) | > 100 µM (inactive) | > 100 | 57 µM (inactive) |  | > 100 µM (inactive) | > 100 µM (inactive) | > 100 µM (inactive) |  |  | > 100 µM (inactive) | > 100 µM (inactive) |  | > 100 µM (inactive) | > 100 µM (inactive)
4 | COc1cc(S(=O)(=O)Nc2ccc(-c3csc(N4C(=O)C(Cl)C4c4cccc(Oc5ccccc5)c4)n3)cc2)ccc1Cl (configuration not stated) | 25.2 µM (inactive) | 22.9 µM (inactive) | 37.7 µM (inactive) | 17.1 µM (inactive) | 3.13 µM (inactive) | 20.2 µM (inactive) | > 100 | 1.69 µM (inactive) | 22.3 µM (inactive) | 24.3 µM (inactive) | 4.91 µM (inactive) | 36.1 µM (inactive) | 2.24 µM (inactive) | 20.5 µM (inactive) | 49.5 µM (inactive) | 21.2 µM (inactive) |  | 35.6 µM (inactive) | > 100 µM (inactive)
5 | COc1cc(N(C)C)c(OC)cc1C=C1C=CC=C1 | > 100 µM (inactive) | > 100 µM (inactive) | > 100 µM (inactive) | > 100 µM (inactive) | 61.2 µM (inactive) |  | > 10 |  |  | > 100 µM (inactive) |  | > 100 µM (inactive) |  | 36.4 µM (inactive) | 60.4 µM (inactive) | > 100 µM (inactive) | > 100 µM (inactive) | 82.4 µM (inactive) | > 100 µM (inactive)
6 | CC(C)(C)OC(=O)N1C(OP(=O)(Oc2ccccc2)Oc2ccccc2)=COc2cccnc21 |  | 37.1 µM (inactive) | 32.7 µM (inactive) | 84.5 µM (inactive) | 27.3 µM (inactive) | 40.3 µM (inactive) | 48.8 | 47 µM (inactive) | 33.3 µM (inactive) | 54.2 µM (inactive) | 45.8 µM (inactive) | 38.9 µM (inactive) | 26.1 µM (inactive) | 16.2 µM (inactive) | 82.6 µM (inactive) | 63.7 µM (inactive) | 31 µM (inactive) | 51.2 µM (inactive) | 46.6 µM (inactive)
7 | CC(CCOc1ccc2ccc(=O)oc2c1)C1=CC(=O)C(C)(C)O1 (configuration not stated) | 1.95 µM (inactive) | 3.92 µM (inactive) | 3.61 µM (inactive) | 4.03 µM (inactive) | 0.612 µM (active) | 2.86 µM (inactive) | 1.71 | 1.51 µM (inactive) |  | 2.9 µM (inactive) | 5.73 µM (inactive) | 1.92 µM (inactive) | 2.23 µM (inactive) | 1.85 µM (inactive) | 3.3 µM (inactive) | 2.72 µM (inactive) | 3.34 µM (inactive) | 2.64 µM (inactive) | 2.87 µM (inactive)
8 | CC1(C)CCC[C@]2(C)[C@@H]1CC[C@@]13O[C@@H]1C1=C(CO)C(=O)O[C@]14O[C@@H]4[C@@H]23 | 17.3 µM (inactive) | 10.8 µM (inactive) | 15.3 µM (inactive) | 9.1 µM (inactive) | 4.61 µM (inactive) | 12.8 µM (inactive) | 14.5 | 7.55 µM (inactive) | 15.2 µM (inactive) | 15.6 µM (inactive) | 8.24 µM (inactive) | 12.8 µM (inactive) | 10.8 µM (inactive) |  | 12.4 µM (inactive) | 14.7 µM (inactive) | 17.6 µM (inactive) | 12.4 µM (inactive) | 7.98 µM (inactive)
9 | O=C(O)Cn1ncn(NC(=O)Cc2ccccc2)c1=S | > 10 µM (inactive) | > 10 µM (inactive) | > 10 µM (inactive) | > 10 µM (inactive) | > 10 µM (inactive) | > 10 µM (inactive) | > 10 | > 10 µM (inactive) | > 10 µM (inactive) | > 10 µM (inactive) | > 10 µM (inactive) | > 10 µM (inactive) | > 10 µM (inactive) |  | > 10 µM (inactive) | > 10 µM (inactive) | > 10 µM (inactive) | > 10 µM (inactive) | > 10 µM (inactive)
10 | O=C(Cc1nccc2c1[nH]c1ccccc12)OC1C#CCSCC#C/C=C\1 (configuration not stated) | 78.5 µM (inactive) | > 100 µM (inactive) | > 100 µM (inactive) | > 100 µM (inactive) | > 100 µM (inactive) | > 100 µM (inactive) | > 100 | 44.2 µM (inactive) |  | > 100 µM (inactive) | > 100 µM (inactive) | > 100 µM (inactive) | 57.9 µM (inactive) | 57 µM (inactive) | > 100 µM (inactive) | > 100 µM (inactive) | > 100 µM (inactive) | 50 µM (inactive) | > 100 µM (inactive)
11 | CC1(C)OC[C@H](COCOP2(=O)Oc3ccc4ccccc4c3-c3c(ccc4ccccc34)O2)O1 | 16.9 µM (inactive) | 16.3 µM (inactive) | 3.48 µM (inactive) | 14.2 µM (inactive) | 16.7 µM (inactive) |  | 15.3 |  |  | 13.3 µM (inactive) |  | 15.3 µM (inactive) |  | 17.1 µM (inactive) | 16.4 µM (inactive) | 16.6 µM (inactive) | 20.2 µM (inactive) | 15 µM (inactive) | 21.5 µM (inactive)
12 | CCOC(=O)C1(O)C(=O)C2=C3C(=O)OC(C4OC(=O)c5c(c(O)c(O)c(O)c5C31)-c1c(cc(O)c(O)c1O)C(=O)OC1COC(=O)c3cc(O)c(O)c(O)c3-c3c(cc(O)c(O)c3O)C(=O)OC14)[C@@H]2O (some centres not stated) | > 100 µM (inactive) | 21.8 µM (inactive) | 18.7 µM (inactive) | 46 µM (inactive) | 30.8 µM (inactive) | 13 µM (inactive) | 17.6 | 21 µM (inactive) |  | > 100 µM (inactive) | 17.6 µM (inactive) | 20.7 µM (inactive) | 15.8 µM (inactive) | 19.1 µM (inactive) | 18.5 µM (inactive) | 18.8 µM (inactive) |  | 15.6 µM (inactive) | 15.2 µM (inactive)
13 | CC(=O)Oc1ccc(-c2cc3ccccc3oc2=O)cc1OC(C)=O | 35.6 µM (inactive) | 21.6 µM (inactive) | 59.2 µM (inactive) | 47.5 µM (inactive) | 8.63 µM (inactive) |  | 10.7 | 3.78 µM (inactive) | 26.9 µM (inactive) | 43.5 µM (inactive) | 51.3 µM (inactive) | 33.3 µM (inactive) | 30.5 µM (inactive) | 1.89 µM (inactive) | 36 µM (inactive) | 35.2 µM (inactive) | 22.1 µM (inactive) | 34.7 µM (inactive) | 14.8 µM (inactive)
14 | c1ccc(CCc2cccnc2)nc1 | > 100 µM (inactive) | > 100 µM (inactive) | > 100 µM (inactive) | > 100 µM (inactive) | > 100 µM (inactive) | > 100 µM (inactive) | > 100 | 45.7 µM (inactive) | > 100 µM (inactive) | > 100 µM (inactive) | > 100 µM (inactive) | > 100 µM (inactive) | > 100 µM (inactive) |  | > 100 µM (inactive) | > 100 µM (inactive) | > 100 µM (inactive) | > 100 µM (inactive) | > 100 µM (inactive)
15 | COC(=O)Cc1ccc(Oc2nc3ccccc3nc2-c2cccs2)cc1 |  | > 100 µM (inactive) | > 100 µM (inactive) | > 100 µM (inactive) | > 100 µM (inactive) | > 100 µM (inactive) | > 100 | > 100 µM (inactive) | 6.81 µM (inactive) | > 100 µM (inactive) | > 100 µM (inactive) | > 100 µM (inactive) | > 100 µM (inactive) | > 100 µM (inactive) | > 100 µM (inactive) | 57.8 µM (inactive) | 95.9 µM (inactive) | > 100 µM (inactive) | > 100 µM (inactive)
16 | N#CCN1c2ccccc2CCC1Cl (configuration not stated) | > 10 µM (inactive) | > 10 µM (inactive) | > 10 µM (inactive) | > 10 µM (inactive) | > 10 µM (inactive) | > 10 µM (inactive) | > 10 | > 10 µM (inactive) |  | > 10 µM (inactive) | > 10 µM (inactive) | > 10 µM (inactive) | > 10 µM (inactive) |  | > 10 µM (inactive) | > 10 µM (inactive) | > 10 µM (inactive) | > 10 µM (inactive) | > 10 µM (inactive)
